Series [1] relates to chronic unpredictable stress mice. The series is described as follows: Forced swimming test (FST) after chronic unpredictable stress. The note with it: fluoxetine 5 mg/kg i.p., CUS mice, p < 0.05. The format is in vivo, male ICR mice. The method, then:
Male ICR mice, weighing between 22–25 g, were obtained from the Animal Centre at Changzhou University. All experiments were carried out according to the National Institute of Health Guide for Care and Use of Laboratory Animals (1996) and were approved by the Institutional Animal Care and Use Committee of Changzhou University (NO. Y20180023). Fluoxetine and resveratrol were purchased from Sigma Chemical Co. (St Louis, MO). For animal behavioural tests, RES003 and rolipram were dissolved in saline containing 5% DMSO, 5% Solutol and 90% saline. The positive control drug fluoxetine was dissolved simply in saline. […]
(§1) After the chronic un-predictable stress (CUS) procedure, sucrose preference test was assessed on the following day, and then forced swimming test (FST) was carried out the next day. […]
According to the previous description, animals were individually placed in glass cylinders (25 cm height, 10 cm diameter) containing 10 cm depth of water at 24 ± 1 °C for 6 min, allowing for free swimming (Porsolt et al. [1978]). […] A mouse was determined to be immobile when there were only small movements necessary to keep its head above water. The immobility time was recorded during the 5 min testing period.

Series [2] concerns PDE3. As to the kind of experiment: PDE enzymatic assay (radioactive tracer, 3H-cAMP/3H-cGMP). The format is biochemical. The note with it: 3H-cAMP or 3H-cGMP substrate, 24 °C, 30 min; read-out: IC50 against PDE3. The method, then:
(§2) All the enzymatic activities of PDEs were assayed by using ^3H- cyclic guanosine monophosphate (cGMP) or ^3H-cAMP as the substrate. PDEs were firstly incubated with the reaction mixture of 50 mmol/L Tris-hydrogen chloride (HCl), pH 7.8, 10 mmol/L magnesium chloride (MgCl2) and ^3H-cAMP or ^3H-cGMP (40, 000 cpm/assay) at 24 °C for 30 min. Then, the reaction was terminated by addition of zinc sulfate and barium hydroxide. Activity of test compounds was assessed by measuring the amount of ^3H-cGMP or ^3H-cAMP resulting from enzyme cleavage. The reaction product ^3H-AMP or ^3H-GMP was precipitated by adding barium sulfate, while unreacted ^3H-cAMP or ^3H-cGMP remained in the supernatant. Radioactivity in the supernatant was measured in 2.5 mL of ultima gold liquid scintillation. At least eight concentrations of inhibitors (0.05–500 μM) were used in the presence of suitable substrates for the measurement of half maximal inhibitory concentration IC50 values, which were calculated by non-linear regression. Each measurement was repeated three times.

Series [3] has as its target PDE2 (Homo sapiens, UniProt O00408). The series is described as above. The format is biochemical. The settings on record: 3H-cAMP or 3H-cGMP substrate, 24 °C, 30 min; read-out: IC50 against PDE2. The method, then: as §2
Series [4] deals with PDE1. The description is as above. The format is biochemical. The note with it: 3H-cAMP or 3H-cGMP substrate, 24 °C, 30 min; read-out: IC50 against PDE1. The method, then:
as §2

In series [5] the test system is PDE4. Described as above. The format is biochemical. The settings on record: for IC50: 3H-cAMP or 3H-cGMP substrate, 24 °C, 30 min, read-out: IC50 against PDE4. The method, then:
as §2

In series [6] the target is PDE5 (Homo sapiens, UniProt O76074). The series is described as above. The format is biochemical. The settings on record: 3H-cAMP or 3H-cGMP substrate, 24 °C, 30 min; read-out: IC50 against PDE5. The method, then:
as §2

In series [7] the test system is mice. As to the kind of experiment: Locomotor activity (LA) test, open-field chamber. The format is in vivo, male ICR mice. The note with it: RES003 at the dose that significantly reduced immobility response, 30 min before test. The protocol: (§3) Male ICR mice, weighing between 22–25 g, were obtained from the Animal Centre at Changzhou University. All experiments were carried out according to the National Institute of Health Guide for Care and Use of Laboratory Animals (1996) and were approved by the Institutional Animal Care and Use Committee of Changzhou University (NO. Y20180023). Fluoxetine and resveratrol were purchased from Sigma Chemical Co. (St Louis, MO). For animal behavioural tests, RES003 and rolipram were dissolved in saline containing 5% DMSO, 5% Solutol and 90% saline. The positive control drug fluoxetine was dissolved simply in saline. Mice were given intra-gastric (i.g.) administration (RES003: 2.5, 5.0 and 10 mg/kg) or intraperitoneal (i.p.) injections (fluoxetine: 5 mg/kg and rolipram: 10 mg/kg) in a volume of 10 mL/kg body weight.
LA test was assessed using an open-field chamber according to previous procedure (Li et al. [2014]). The floor of the chamber was divided into 16 identical squares. Mice were individually placed in the centre of the chamber and allowed to acclimatize for 15 min. Their paws were contacted or disconnected the active bars which can produce random configurations. The locomotor counts of mice were measured by counting the number of line crossings in the following 10 min.

For series [8], the system named is BDNF. The series is described as follows: Western blot of BDNF expression in brain tissue of CUS mice. The format is in vivo, male ICR mice. The settings on record: RES003 5 and 10 mg/kg, vs model group, p < 0.05 and 0.01. The protocol:
as §3
(§4) The chronic unpredictable stress procedure was carried out as described previously with minor modification (Polster and Fiskum [2004]). […]
as §1
(§5) The brain tissues were dissected and stored at −80 °C until analysis after mice were sacrificed. […] The detection and quantification of specific bands were performed using a fluorescence scanner and ‘Image-Pro’ software. […]
In general terms: Immunoblotting shows a protein as a band on a membrane.

Series [9] concerns pCREB/CREB. As to the kind of experiment: Western blot of pCREB/CREB in brain tissue of CUS mice. The format is in vivo, male ICR mice. The note with it: RES003 10 mg/kg, vs model group, p < 0.05. The method, then:
as §3, §4, §1, §5

Series [10] deals with chronic unpredictable stress mice. The series is described as follows: Sucrose preference test (SPT) after chronic unpredictable stress. The format is in vivo, male ICR mice. The settings on record: RES003 5 and 10 mg/kg (medium and large dose), once a day for 10 days, CUS mice, vs model group, p < 0.01. The method, then: as §3, §4, §1
The SPT was performed according to the previous description with minor modification (Yu et al. [2013]). […] The sucrose preference was calculated as the ratio of the consumed sucrose solution to the total amount of liquid consumed.

PDE2, sequence (O00408 whole entry): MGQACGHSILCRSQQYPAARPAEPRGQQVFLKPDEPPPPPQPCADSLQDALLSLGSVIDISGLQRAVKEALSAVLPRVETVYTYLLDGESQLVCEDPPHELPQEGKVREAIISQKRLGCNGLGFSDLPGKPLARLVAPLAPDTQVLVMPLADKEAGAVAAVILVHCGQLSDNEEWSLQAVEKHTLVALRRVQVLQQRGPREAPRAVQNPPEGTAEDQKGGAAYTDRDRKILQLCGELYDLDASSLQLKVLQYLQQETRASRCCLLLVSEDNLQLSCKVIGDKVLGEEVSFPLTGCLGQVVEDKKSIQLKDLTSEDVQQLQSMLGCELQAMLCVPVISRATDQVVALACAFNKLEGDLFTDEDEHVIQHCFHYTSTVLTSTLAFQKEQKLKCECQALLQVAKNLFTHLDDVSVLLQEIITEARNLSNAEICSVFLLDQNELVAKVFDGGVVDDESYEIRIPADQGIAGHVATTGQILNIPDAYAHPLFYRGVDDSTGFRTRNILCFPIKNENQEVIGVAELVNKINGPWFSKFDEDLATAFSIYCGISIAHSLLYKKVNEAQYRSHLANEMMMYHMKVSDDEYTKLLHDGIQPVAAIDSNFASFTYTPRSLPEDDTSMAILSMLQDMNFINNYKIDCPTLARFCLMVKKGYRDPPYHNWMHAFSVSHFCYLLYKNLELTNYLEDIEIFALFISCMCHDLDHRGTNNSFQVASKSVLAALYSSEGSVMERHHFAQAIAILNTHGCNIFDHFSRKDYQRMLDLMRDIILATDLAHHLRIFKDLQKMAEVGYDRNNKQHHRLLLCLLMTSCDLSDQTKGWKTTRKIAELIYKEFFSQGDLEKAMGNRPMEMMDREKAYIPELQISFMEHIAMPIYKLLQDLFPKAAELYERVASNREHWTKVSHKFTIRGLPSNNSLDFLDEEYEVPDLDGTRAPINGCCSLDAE

As for `CNCCC(Oc1ccc(C(F)(F)F)cc1)c1ccccc1` (stereo not shown) [fluoxetine, Fluoxetine, reference compound], the “immobility time in forced swimming test” value in series [1] is given as “significant anti-depressant-like effects”.
As usually defined, the IC50 is the midpoint of a concentration-inhibition curve. As to `Oc1ccc(-c2cc(-c3cc(O)cc(O)c3)n[nH]2)cc1` [RES003, 5-[5-(4-Hydroxyphenyl)-1H-pyrazol-3-yl]benzene-1,3-diol], the IC50 was more than 100 µM in series [2]; more than 100 µM in series [3]; 92.6 ± 8.3 µM in [4]; 0.87 µM in [5]; more than 100 µM in series [6]. For the same compound, the “selectivity for PDE4 over PDE1, PDE2, PDE3 and PDE5” value in series [5] (ratio of IC50 values) is listed as more than 100 fold. Further, in series [7], the “locomotor activity (line crossings in 10 min)” value is “did not affect the locomotor activity”. Also, the “BDNF expression in brain tissue” value in [8] is on record as “significantly upregulated”. Moreover, in series [9], the “ratio of pCREB/CREB in brain tissue” value was “reversed”. Also, the “consumption of sugar water (sucrose preference)” value in series [10] was “significantly increase the consumption of sugar water”.
For the compound `Oc1ccc(/C=C/c2cc(O)cc(O)c2)cc1` [resveratrol, Resveratrol], the IC50 in series [2] was 12.7 ± 2.1 µM; in series [3] it was more than 100 µM; in series [4], 8.7 ± 1.1 µM; in [5], 18.8 µM; in [6], more than 100 µM.

Values taken from article PMC8049461, “The anti-depressant effects of a novel PDE4 inhibitor derived from resveratrol” (Pharmaceutical Biology, 2021).
